# Reference: US6255273A, “Hydrofluoropolyether-based azeotropic or near azeotropic compositions” (Ausimont S.p.A., priority 1998, dated 2001)
# Assays:
# [1] = Hydrofluoropolyether chemical-physical characteristics (Table 1); type: physicochemical; conditions: for BOILING TEMPERATURE / Evaporation latent heat: at 1.013 bar; for Isotherm evaporation speed / Surface pressure: at 20° C.; for Liquid density: at 25° C.; for Flammability in air: in air (% volume)
# [2] = Kauri-butanol index, modified ASTM D1133-86; type: physicochemical
# Method: The solvent effect of the HFPE-based mixtures is evaluated by determination of the Kauri-butanol index, reported in Table 19, according to ASTM […]-86 method. […] The Kauri-butanol solution is stirred by a magnetic stirrer. The end titration point is identified in connection with a diffused turbidity which appears in the Kauri-butanol solution due to the resin separation.
# [3] = water removal from glass surfaces; conditions: with 600 ppm by weight surfactant; CFC 113 42° C., HCFC123 mixture 23° C., tDCE mixture 35° C.
# Method: In a cylindrical container having a 46 cm diameter and a 56 cm height, equipped with a neoprene closing stopper (cover), 30 ml of the solution to be tested are introduced.
# The compositions, indicated in Table 22, used for the water removal tests are prepared in a 50 ml flask and are heated in a thermostatic bath at a temperature of about 5° C. lower than the boiling temperature of the solution itself.
# After heating the solution is transferred in the test container equipped with cover.
# On a glass surface having 37×25×1 mm sizes, 0.015 g of water are deposited in the form of small drops.
# The glass is placed on a metal frame which is used to carry out the article dipping in the liquid phase of the solution to be tested.
# The container for the test is opened and the frame is slowly dipped into the solution; the frame upper part runs in a hole made in the rubber cover (cap) which closes the container.
# When two minutes have elapsed, the frame is lifted from the liquid phase, by letting run the external end part through the hole present in the cover (cap); the glass will remain exposed to the solution vapours for one minute, then it is removed from the container and weighed.
# [4] = oily product removal from molded circuits, oil (4); conditions: 23° C.; methyl alcohol mixture 51° C., tDCE mixture 25° C., acetone mixture 66° C.; 5 min dipping
# Method: (§1) The oily product removal capacity from molded circuits has been verified according to the following method: a known amount of an oily product is uniformly spread on the molded circuit surface having 35×19 mm sizes; 0.100 g of oil are spread on a single surface of the circuit, then the article is dipped in the solution to be tested.
# (§2) After 5 minutes of dipping, the circuit is allowed to drie for further 5 minutes at room temperature so as to remove the solvent traces and then it is weighed again on an analytical balance.
# (§3) The following oily products have been used:
# 4) Mineral-Clavus 32 oil by SHELL.
# (§4) Tests are carried out at room temperature (23-250° C.) and tests at the boiling temperature of the solvent mixtures. In the latter case the solvent is placed in a vessel equipped with a refrigerant under reflux which recovers the vapour of the boiling solution.
# (§5) In all the tests 30 ml of solvent solution have been used.
# [5] = oily product removal from molded circuits, oil (3); conditions: 23° C.; methyl alcohol mixture 51° C., tDCE mixture 25° C., acetone mixture 66° C.; 5 min dipping
# Method: as §1, §2, §3
# 3) Ester-Icematic SW 100 oil by CASTROL
# as §4, §5
# [6] = background; cited from earlier work
# [7] = oily product removal from molded circuits, oil (1); conditions: 23° C.; methyl alcohol mixture 51° C., tDCE mixture 25° C., acetone mixture 66° C.; 5 min dipping
# Method: as §1, §2, §3
# 1) Alkyl Benzene-Zerice S 46 oil by ESSO
# as §4, §5
# [8] = oily product removal from molded circuits, oil (2); conditions: 23° C.; methyl alcohol mixture 51° C., tDCE mixture 25° C., acetone mixture 66° C.; 5 min dipping
# Method: as §1, §2, §3, §4, §5
# rats [9] = assay: Acute toxicity in rats by inhalation; type: in vivo; conditions: 4 hours
# [10] = evaluation of the boiling temperature at the pressure of 1.013 bar (binary mixtures); type: physicochemical
# rats [11] = assay: Acute toxicity in rats per os; type: in vivo; design: unit not given here
# [12] = Table 2, HCF2 OCF2 OCF2 H/HCFC 123, number in label = % by wt. HCF2 OCF2 OCF2 H
# [13] = Table 7, HCF2 OCF2 OCF2 H/HFC 356 ffa, number in label = % by wt. HCF2 OCF2 OCF2 H
# [14] = Table 6, HCF2 OCF2 OCF2 H/HFC 365 mfc, number in label = % by wt. HCF2 OCF2 OCF2 H
# [15] = Table 5, HCF2 OCF2 OCF2 H/acetone, number in label = % by wt. HCF2 OCF2 OCF2 H
# [16] = Table 8, HCF2 OCF2 OCF2 H/metoxymethyl methyl ether, number in label = % by wt. HCF2 OCF2 OCF2 H
# [17] = Table 10, HCF2 OCF2 OCF2 H/tDCE, number in label = % by wt. HCF2 OCF2 OCF2 H
# [18] = Table 12, HCF2 OCF2 CF2 OCF2 H/acetone, number in label = % by wt. HCF2 OCF2 CF2 OCF2 H
# [19] = Table 13, HCF2 OCF2 CF2 OCF2 H/methyl alcohol, number in label = % by wt. HCF2 OCF2 CF2 OCF2 H
# [20] = Table 15, HCF2 OCF2 CF2 OCF2 H/tDCE, number in label = % by wt. HCF2 OCF2 CF2 OCF2 H
# [21] = Table 16, HCF2 OCF2 CF2 OCF2 H/ethyl alcohol, number in label = % by wt. HCF2 OCF2 CF2 OCF2 H
compound,measurement,setting,value
"FC(F)(Cl)C(F)(Cl)Cl [CFC 113, 1,1,2-trichloro-1,2,2-trifluoroethane]",BOILING TEMPERATURE,[1],47.55 °C
same,Evaporation latent heat,[1],144 kJ/kg
same,Isotherm evaporation speed,[1],1 mg/min
same,Surface pressure,[1],18.1 dynes/cm
same,Liquid density,[1],1.56 g/mL
same,Flammability in air,[1],non
same,Kauri-butanol index,[2],31
same,removed water,[3],100 % by weight
same,"Percentage of removed oil, oil (4) Mineral-Clavus 32",[4],100 % by weight
same,"Percentage of removed oil, oil (3) Ester-Icematic SW 100",[5],100 % by weight
same,flammability,[6],non flammable
same,stability,[6],stable
same,toxicity,[6],non toxic
same,"Percentage of removed oil, oil (1) Alkyl Benzene-Zerice S 46",[7],100 % by weight
same,"Percentage of removed oil, oil (2) FluoroSilicone-FS 1265",[8],99.5 % by weight
same,"Acute toxicity in rats by inhalation, LC50",rats [9],50000 ppmv/4 hours
"FC(F)(F)C(Cl)Cl [HCFC 123, 1,1-dichloro-2,2,2-trifluoroethane, reference compound]",BOILING TEMPERATURE,[10]; [12],27.54 °C
CC(F)(Cl)Cl [HCFC 141b],flammability,[6],moderately flammable
"FC(F)(F)CCC(F)(F)F [HFC 356 ffa, 1,1,1,4,4,4-hexafluorobutane, reference compound]",BOILING TEMPERATURE,[10]; [13],24.71 °C
"CC(F)(F)CC(F)(F)F [HFC 365 mfc, 1,1,1,3,3-pentafluorobutane, reference compound]",BOILING TEMPERATURE,[10]; [14],40.09 °C
"FC(F)OC(F)(F)OC(F)F [HFPE1, difluoromethoxy-bis(difluoromethyl ether)]",BOILING TEMPERATURE,[1],35.39 °C
same,Evaporation latent heat,[1],165 kJ/kg
same,Isotherm evaporation speed,[1],1.5 mg/min
same,Surface pressure,[1],14.0 dynes/cm
same,Liquid density,[1],1.54 g/mL
same,Flammability in air,[1],non flammable
same,"Acute toxicity in rats per os, LD50",rats [11],> 5000
same,BOILING TEMPERATURE,[10]; [12],35.39 °C
same,BOILING TEMPERATURE,"[10]; Table 3, HCF2 OCF2 OCF2 H/n-pentane, number in label = % by weight HCF2 OCF2 OCF2 H",35.39 °C
same,BOILING TEMPERATURE,"[10]; Table 4, HCF2 OCF2 OCF2 H/iso-pentane, number in label = % by wt. HCF2 OCF2 OCF2 H",35.39 °C
same,BOILING TEMPERATURE,[10]; [15],35.39 °C
same,BOILING TEMPERATURE,[10]; [14],35.39 °C
same,BOILING TEMPERATURE,[10]; [13],35.39 °C
same,BOILING TEMPERATURE,[10]; [16],35.39 °C
same,BOILING TEMPERATURE,"[10]; Table 9, HCF2 OCF2 OCF2 H/n-hexane, number in label = % by wt. HCF2 OCF2 OCF2 H",35.39 °C
same,BOILING TEMPERATURE,[10]; [17],35.39 °C
same,"Acute toxicity in rats by inhalation, LC50",rats [9],> 32000 ppmv/4 hours
"FC(F)OC(F)(F)C(F)(F)OC(F)F [HFPE2, 1-difluoromethoxy-1,1,2,2-tetrafluoroethyl difluoromethyl ether]",BOILING TEMPERATURE,[1],58.21 °C
same,Evaporation latent heat,[1],139 kJ/kg
same,Isotherm evaporation speed,[1],0.6 mg/min
same,Surface pressure,[1],15.5 dynes/cm
same,Liquid density,[1],1.60 g/mL
same,Flammability in air,[1],non flammable
same,"Acute toxicity in rats per os, LD50",rats [11],> 5000
same,BOILING TEMPERATURE,"[10]; Table 11, HCF2 OCF2 CF2 OCF2 H/n-pentane, number in label = % by wt. HCF2 OCF2 CF2 OCF2 H",58.21 °C
same,BOILING TEMPERATURE,[10]; [18],58.21 °C
same,BOILING TEMPERATURE,[10]; [19],58.21 °C
same,BOILING TEMPERATURE,"[10]; Table 14, HCF2 OCF2 CF2 OCF2 H/n-hexane, number in label = % by wt. HCF2 OCF2 CF2 OCF2 H",58.21 °C
same,BOILING TEMPERATURE,[10]; [20],58.21 °C
same,BOILING TEMPERATURE,[10]; [21],58.21 °C
same,"Acute toxicity in rats by inhalation, LC50",rats [9],> 32000 ppmv/4 hours
"CC(C)=O [acetone, dimethyl ketone, reference compound]",BOILING TEMPERATURE,[10]; [15],56.50 °C
same,BOILING TEMPERATURE,[10]; [18],56.50 °C
"CCO [ethyl alcohol, reference compound]",BOILING TEMPERATURE,[10]; [21],78.50 °C
"CO [methyl alcohol, reference compound]",BOILING TEMPERATURE,[10]; [19],65.00 °C
"COCOC [metoxymethyl methyl ether, methoxymethyl methyl ether, reference compound]",BOILING TEMPERATURE,[10]; [16],41.96 °C
"Cl/C=C/Cl [tDCE, trans 1,2-dichloroethylene, reference compound]",BOILING TEMPERATURE,[10]; [17],46.70 °C
same,BOILING TEMPERATURE,[10]; [20],46.79 °C
